The source of these data is paper PMC6934550 (Scientific Reports, 2019).

For series [1] the following is noted: rhesus monkey, in vivo.
The conditions of series [2]: human, in vivo, 10 mg/kg; cited from earlier work.
The test system of series [3] is monocyte-derived macrophages (MDMs).
Series [4] can be described thus: in vitro. The settings on record: African green monkey.
The next series deals with EBOV. Particulars: cited from earlier work.
For series [5] the following is noted: rhesus monkey, in vivo. This is another data set of the same source.
Series [6] deals with EBOV (Makona variant, EBOV/Mak). It is filed as cell-based, Ebola virus.
The test system of a further series is EBOV/Mak. On the set-up: species or system Rhesus macaques. Particulars: rhesus monkey, in vivo.
For series [7] the following is noted: rhesus monkey, in vivo. The source holds these as a separate data set.
Another series can be described thus: in vivo. Particulars: both, rhesus monkey, po; for AUC(0-t): AUClast.
A short description of series [8]: in vitro. Particulars: human.
Series [9] in a line: in vitro. Particulars: human. The source holds these as a separate data set.
The mark [10] stands for this setting: read-out: IC50 range over cell types.
Where [11] appears, read: 40 mg/kg, elimination phase half-life (t1/2), range among individual animals.

The structures appear in SMILES notation. “And” between values parts separate entries of the source, which are not always exact repeats. Equal values may be shown once. “Also recorded” adds a separate entry of the source. Where a name gives a salt, the structure may show the parent alone. Read-outs that look alike come from different tables or passages of the source.

Turning to `CCN(CC)Cc1cc(Nc2ccnc3cc(Cl)ccc23)ccc1O` [Amodiaquine dihydrochloride hydrate, amodiaquine dihydrochloride dihydrate], in series [1] (both, po, 20 mg/kg), the “Tmax, mean” value turned out to be 3 h. Also, in [1] (20 mg/kg), the “Cmax (range)” value was 7.8‒31.9. In addition, the highest concentration (Cmax) in [2] was 29.2 ± 10.9 ng/mL. The “cytotoxicity” value in series [3] was “elevated cytotoxicity”. This compound also registered a CC50 in the series “in vitro [4]” of 40.1 µM. Moreover, in the series on EBOV, the “in vitro EBOV inhibition” value is “potent EBOV inhibitor” and the “in vitro antiviral activity against EBOV” value is listed as “known to have in vitro antiviral activity against EBOV”. Besides, in series [5], the “ALT and AST elevation” value was 2.6- to 6.3 fold; the blood pressure result was “lower blood pressure readings than at predose”; the clinical observations entry is recorded as “hypoactivity, shivering (muscle tremors) and/or diarrhea”; the tolerability result is “well-tolerated”. In series [6], the Max effect was 100% at 30 and 100% at 40. The IC50 in series [6] (setting [10]) lay in the range of 3.2 to 27.9 µM. Moreover, in the series on EBOV/Mak, the “RNA levels at necropsy” value is reported as 10^9–10^11 viral RNA copies/ml; the “clinical signs, febrile illness, weight loss versus control” value is on record as “Clinical signs did not differ significantly between the groups”; the “hematology and serum chemistry versus control” value is on record as “followed the same trends as the control animal values”; the “plasma viral load (RT-qPCR, plaque assay), words” value was “did not reduce plasma viral RNA copies or infectious virus titer”. Further, the “survival / efficacy” value in the series on EBOV/Mak was “All animals were euthanized or succumbed to disease by day 8 postexposure; also recorded: did not result in a survival benefit or decrease of disease signs; also recorded: did not result in a survival benefit or decrease of disease symptoms; also recorded: did not have a beneficial effect on survival or the symptoms of EVD”. Moreover, the “Median time to disposition” value in the series on EBOV/Mak (po, 20 mg/kg) was 7 days and 6 days. Besides, the “plasma levels of AQ” value in series [7] is listed as “negligible levels of AQ in all but five plasma samples”. Also, in “in vivo” (20 mg/kg, mean), the AUC(0-t) came to 74 ng·h/mL and the highest level (Cmax) was 17.1 ng/mL. In addition, the time of peak concentration (Tmax) in the series “in vivo” (20 mg/kg, Tmax, mean) turned out to be 5 h. The compound further had an area under the curve AUC(0-inf) in the series “in vivo” (40 mg/kg, AUCinf, mean) of 324 ng·h/mL. In the series “in vivo” (40 mg/kg, mean), this compound displayed an exposure AUC(0-t) of 258 ng·h/mL and a Cmax of 53.7 ng/mL. Also, the Tmax in the series “in vivo” (40 mg/kg, Tmax (range)) is 0.5 to 8 h. Besides, in “in vivo” (40 mg/kg, Tmax, mean), the time of peak concentration (Tmax) came to 5 h. Besides, the half-life in “in vivo” (setting [11]) was in the range of 3 to 28 h.
For the compound `C[C@H]1[C@H](OC(=O)CCC(=O)O)O[C@@H]2O[C@@]3(C)CC[C@H]4[C@H](C)CC[C@@H]1[C@@]24OO3` [Artesunate, artesunate], the CC50 in the series “in vitro [4]”, in the series “in vitro [8]” and in the series “in vitro [9]” was more than 40 µM each time. In addition, the “activity against EBOV” value in the series with EBOV is recorded as “no activity against EBOV has been demonstrated”. Besides, the “in vitro antiviral activity against EBOV” value in series [6] was “weak or undetectable; also recorded: minimal to no in vitro antiviral activity”. Moreover, the IC50 in series [6] (read-out: IC50) is 17.2 ± 1.2 µM.
`C[C@H]1[C@@H](O)O[C@@H]2O[C@@]3(C)CC[C@H]4[C@H](C)CC[C@@H]1[C@@]24OO3` [Dihydroartimesinin, dihydroartemisinin] yielded a CC50 in “in vitro [4]” of more than 40 µM. For the same compound, the CC50 in the series “in vitro [8]” is more than 40 µM. Moreover, in [6], the Max effect is 64% at 40 and 49% at 40; the “in vitro antiviral activity against EBOV” value is reported as “weak or undetectable; also recorded: minimal to no in vitro antiviral activity”. Besides, the IC50 in series [6] (read-out: IC50) was 31.5 µM and 35.2 µM.
Regarding `CCNCc1cc(Nc2ccnc3cc(Cl)ccc23)ccc1O` [N-Desethylamodiaquine hydrochloride, N-desethylamodiaquine hydrochloride], the “AUClast and AUCinf, fold higher for DEAQ than for AQ” value in series [1] (both, po) is 2.5- to 3 fold. In series [1] (both, po, 20 mg/kg), this compound gave a t1/2 of 15 h. The “Cmax (range)” value in series [1] (20 mg/kg) is 203‒369. Further, the Cmax is 268.7 ± 70.8 ng/mL in [2]; 287 ng/mL in the series “in vivo” (20 mg/kg, mean); 618 ng/mL in “in vivo” (40 mg/kg, mean). Moreover, in series [3], the “cytotoxicity” value is reported as “elevated cytotoxicity”. Besides, in “in vitro [4]”, the CC50 worked out at 33.1 µM. The “in vitro antiviral activity against EBOV” value in the series on EBOV is listed as “known to have in vitro antiviral activity against EBOV”. In addition, in [6], the Max effect is 100% at 40 and 80% at 40. In addition, in series [6] (setting [10]), the IC50 was in the range of 2.8 to 30 µM. Moreover, the “plasma levels of DEAQ” value in series [7] (Chinese origin) was “detectable in all treated animals from both groups 2 and 3”. The half-life in the series “in vivo” (20 mg/kg, t1/2, mean) was 15.6 h; in “in vivo” (setting [11]), 12 to 51 h. The Tmax in the series “in vivo” (40 mg/kg, Tmax (range)) is 0.5 to 8 h; in “in vivo” (40 mg/kg, Tmax, mean) it was 5 h.

The Cmax is the peak of the concentration-time curve. By IC50 is commonly meant the concentration at which inhibition is half-maximal. In general, AUC(0-t) refers to the area under the concentration-time curve up to a stated or last time point. The Tmax is the time from dosing to the highest level. One may read the AUC(0-inf) as the area under the concentration-time curve extrapolated to infinity. Usually half-life stands for the time in which the quantity being followed falls by half.
